From PMC11249239 (PLOS ONE, 2024) come the findings set out here.

In one assay the test system is HCC-1937 (TNB) cells. In words: Cell growth inhibition (CCK8 cytotoxicity assay), HCC-1937. Format: cell-based. The following applies: 48 h treatment, read-out: Average EC50 ± SD, cell growth inhibition. For orientation: Formazan colour is commonly taken as a measure of viable cells.
The subject of assay [1] is MCF10A normal breast epithelial cells. Nature of the assay: Cell growth inhibition (CCK8 cytotoxicity assay), MCF10A. The class given is cell-based. The settings on record: 48 h treatment, read-out: Average EC50 ± SD, cell growth inhibition.
In assay [2] the test system is acetylated histone 3 lysine 9 (H3K9ac). Nature of the assay: Western blot, acetylation of histone H3 lysine 9. The class given is cell-based. The settings on record: MCF7 and MDA-MB-231; 1 μM; within 0.5 h. The text has this:
Following treatment of cells with SP-1-303 over a time course, total or nuclear proteins were extracted and analyzed on 4–20% trisglycine gradient sodium dodecyl sulfate polyacrylamide gel electrophoresis (SDS-PAGE). Subsequently, membranes were probed with antibodies targeting specific proteins in accordance with the manufacturers’ protocols, including ATM (ab78), p-BRCA1 (ab90528), BRCA1 (ab191042), p-p53/S15 (ab1431), acetylated H3K9 (ab12179) from Abcam, as well as p-ATM (# 5883) and p53 (#9282) from Cell Signaling, α-tubulin (T6793) and β-actin (A3854) from Sigma-Aldrich, ER-α (cat# MA1-80216, Invitrogen) and HDAC2 (BML-SA402. Enzo). Protein images were captured using ECL Prime Western Blotting Detection Reagents (Cat#. RPN2232, Amersham) and the Amersham Imager 600. For immunofluorescent analysis, formalin fixed cells were permeabilized with 0.1% Triton X-100 in TBS for 10 minutes at room temperature, followed by blocking with 1% Blocker BSA for 15 minutes at room temperature. Cells were then probed with a phospho-ATM monoclonal antibody (MA5-15185) and DyLight 488 goat anti-mouse IgG secondary antibody at room temperature. Actin was stained with DyLight 554 phalloidin, while nuclei were stained with 4’,6-diamidino-2-phenylindole dye (DAPI). Images were captured using a Nikon Epi Fluorescent microscopy.
(In western blotting, separated proteins are transferred to a membrane and probed.)

A further assay deals with T1, HDAC6 (Homo sapiens, UniProt Q9UBN7).
T1 construct: purchased PBS Bioscience [sic] (San Diego, CA); host or cells: Sf9 insect cells / baculovirus
T1 sequence (Q9UBN7 1-1215): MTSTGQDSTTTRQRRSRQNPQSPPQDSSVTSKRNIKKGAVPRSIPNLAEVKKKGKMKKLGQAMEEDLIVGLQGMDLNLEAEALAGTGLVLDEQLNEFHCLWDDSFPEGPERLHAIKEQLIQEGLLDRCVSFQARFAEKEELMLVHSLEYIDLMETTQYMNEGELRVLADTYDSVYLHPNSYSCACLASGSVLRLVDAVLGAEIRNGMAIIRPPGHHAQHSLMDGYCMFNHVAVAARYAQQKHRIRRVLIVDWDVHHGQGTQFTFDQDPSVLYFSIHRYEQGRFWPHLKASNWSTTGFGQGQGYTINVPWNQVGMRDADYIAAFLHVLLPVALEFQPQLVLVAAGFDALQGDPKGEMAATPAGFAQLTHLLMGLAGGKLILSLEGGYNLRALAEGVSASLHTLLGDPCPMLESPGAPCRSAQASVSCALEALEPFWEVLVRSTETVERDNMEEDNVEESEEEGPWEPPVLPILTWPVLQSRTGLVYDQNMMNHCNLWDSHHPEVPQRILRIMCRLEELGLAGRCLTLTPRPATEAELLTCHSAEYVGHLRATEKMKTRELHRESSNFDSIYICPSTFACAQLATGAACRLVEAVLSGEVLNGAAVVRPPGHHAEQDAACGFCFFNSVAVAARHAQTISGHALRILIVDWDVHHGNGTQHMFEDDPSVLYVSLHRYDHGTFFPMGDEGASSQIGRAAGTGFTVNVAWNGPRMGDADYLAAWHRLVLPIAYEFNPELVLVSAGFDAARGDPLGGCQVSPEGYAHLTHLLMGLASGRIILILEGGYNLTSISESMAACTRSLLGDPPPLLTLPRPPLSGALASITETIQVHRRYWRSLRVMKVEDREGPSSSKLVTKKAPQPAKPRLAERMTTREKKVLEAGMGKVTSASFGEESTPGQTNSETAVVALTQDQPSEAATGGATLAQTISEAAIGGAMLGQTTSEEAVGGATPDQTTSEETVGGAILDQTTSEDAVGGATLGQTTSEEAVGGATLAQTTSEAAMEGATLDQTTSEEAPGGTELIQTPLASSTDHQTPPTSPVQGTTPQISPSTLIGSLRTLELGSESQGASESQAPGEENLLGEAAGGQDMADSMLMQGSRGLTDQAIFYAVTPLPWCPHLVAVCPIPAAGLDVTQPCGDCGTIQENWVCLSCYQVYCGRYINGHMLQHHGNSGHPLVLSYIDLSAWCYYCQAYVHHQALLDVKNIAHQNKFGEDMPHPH
In words: In vitro HDAC isoform inhibition, purified recombinant HDAC6. The class given is biochemical. The text has this:
In vitro HDAC enzyme inhibition assays utilized HeLa cell extract for pan-HDACs with the substrate Fluor-Lys following the manufacturer’s protocol (BIOMOL/ENZO, Plymouth Meeting, PA). For isoform assays, purified HDAC1, HDAC3, and HDAC6 recombinant proteins produced by expressing epitope-tagged full-length proteins in the sf9 baculovirus expression vector system were purchased from PBS Bioscience (San Diego, CA). […] The reaction commenced with the addition of HDAC substrate at room temperature and proceeded for 30 minutes. Termination of the reaction was achieved by adding 50 μL of Fluor de Lys (TM) Assay Developer. The fluorophore was excited at 360 nm and emitted light at 460 nm. Relative fluorescence was measured using a FlexStation II plate reader (Molecular Devices, Sunnyvale, CA).

In another assay the test system is MCF10A cells. In words: Radiation clonogenic survival assay, MCF10A. The settings on record: 0.3 μM for 24 h then graded γ-radiation, control 2.5 Gy. The class given is cell-based. The method, then: Logarithmically growing cells were treated with vehicle (0.1% Dimethyl Sulfoxide) or SP-1-303 (0.3 μM) for 24 h followed by sham or γ-radiation using a Mark-30 irradiator with a 137Cs source at a fixed dose rate of 2.71 Gy/min. Cells were exposed to graded doses at room temperature. After 10–14 days, cells were fixed and stained with crystal violet, and colonies were counted. The surviving fractions of treated cells were normalized using the plating efficiencies of untreated controls. Radiation survival curves were generated by fitting to the single-hit, multitarget model.

In assay [3] the test system is triple negative breast cancer cells. Nature of the assay: Cell growth inhibition, triple negative breast cancer cells stated together. The class given is cell-based. The settings on record: range over triple negative breast cancer cells; read-out: effective growth inhibition concentrations (EC50). The source says: Prism-GraphPad software was used to analyze data.

Read-outs that look alike come from different tables or passages of the source.

Regarding `Cc1[nH]c2ccccc2c1C1=C(c2c(C)[nH]c3ccccc23)C(=O)N(CCCCCCC(=O)NO)C1=O` [SP-1-303], the EC50 with HCC-1937 (TNB) cells was 2480 nM; in the assay with HCC-1937 (TNB) cells (Homo sapiens, HCC1937, 48 h), 2500 nM; in assay [1], 12200 nM; in assay [1] (Homo sapiens, MCF-10A, 48 h), about 12000 nM; in assay [3] it was 1200 to 2500 nM. Besides, the “acetylation of histone H3 lysine 9 (H3K9)” value in assay [2] is recorded as “significantly enhanced”. Further, on HDAC6, the “ratio of inhibitory concentrations for HDAC6 to HDAC1” value was found to be 36 fold. Further, the concentration for half-maximal inhibition (IC50) on HDAC6 (purified recombinant protein, ± margin of error of 95% confidence interval, read-out: IC50 HDAC inhibition activity in vitro, HDAC 6) amounted to 435 ± 35 nM. The “Ratio (HDAC6:HDAC1)” value on HDAC6 (ratio of IC50 values) is 36. In the assay on MCF10A cells, the “D0, radiation clonogenic survival” value amounted to 2.4 Gy.

By IC50 is commonly meant the concentration that gives 50% inhibition.
